According to US20250268873A1, “COMBINATION OF DUAL ATM AND DNA-PK INHIBITORS AND IMMUNOTHERAPEUTIC AGENTS FOR USE IN CANCER THERAPY” (XRAD THERAPEUTICS, INC., priority 2021, published 2025):

Tests used:
[1] = tested on: MCF7 cells; assay: Clonogenic Survival Assay in MCF7 cells; assay type: cell-based, human; conditions: for Fold 2 Gy / Fold 4 Gy: vs DMSO; for % survival @ 0 Gy w/out IR: no IR
Experimental: Human cancer cell lines, including MCF-7 human breast carcinoma cell line and A549 human lung carcinoma cell line, and HCT116 p53 wild-type and HCT116 p53−/− cell lines were obtained from ATCC. MCF7 and HCT116 cells were cultured in Dulbecco's modified Eagle's medium (DMEM (Gibco #11995-065). MDA-MB-231 human triple negative breast cancer cell line and FADU, human head and neck squamous cell carcinoma line, were obtained from Charles River Laboratories (Morrisville, NC). MDA-MB-231 and A549 cells were cultured in RPMI 1640 medium (Gibco, 11875-093). FADU cells were cultured in Minimum Essential Medium α (MEM α) (Gibco, 12571-063) supplemented with 1 mM Sodium Pyruvate (Gibco, 11360-070), 1×MEM Non-Essential Amino Acids (Gibco, 11140-050). All cell lines were supplemented with 10% fetal bovine serum (FBS) (Corning, 35-010-CV) and 1× Antibiotic-Antimycotic (Gibco #15240-062) and were grown at 37° C. in 5% CO2. All cell lines were authenticated by short tandem repeat profiling and tested negative for mycoplasma.
This assay was performed with Compound 569 as an exemplary Formula (I) compound. Cells were plated in 6-well plates at different densities: 250 cells for no IR control, 5000 cells for 2 Gy of IR and 10000 cells for 4 Gy of IR and cultured overnight. The next day, MCF7 cells were preincubated with compound 569 at 100, 250, 500, or 1000 nM or DMSO for 30 min before being exposed to increasing doses of IR (0, 2, or 4 Gy). The A549 cells were incubated with Compound 569 at 500 or 1000 nM or with DMSO for 30 min before being exposed to increasing doses of IR (0, 2, or 4 Gy). After IR, cells were continuously incubated with DMSO or compound 569 for 5 h before the culture medium was removed and cells were washed with PBS. Cells were cultured in complete medium in the absence of inhibitor for 9 days. Then cells were stained (PBS, […], 0.1% crystal violet) rinsed with water and dried.

[2] = molecular target: ATM (Homo sapiens (Human), UniProt Q13315); assay: Pharmacodynamic assay, pKAP1/KAP1 in MDA-231 tumors; assay type: in vivo
ATM, sequence (Q13315 whole entry): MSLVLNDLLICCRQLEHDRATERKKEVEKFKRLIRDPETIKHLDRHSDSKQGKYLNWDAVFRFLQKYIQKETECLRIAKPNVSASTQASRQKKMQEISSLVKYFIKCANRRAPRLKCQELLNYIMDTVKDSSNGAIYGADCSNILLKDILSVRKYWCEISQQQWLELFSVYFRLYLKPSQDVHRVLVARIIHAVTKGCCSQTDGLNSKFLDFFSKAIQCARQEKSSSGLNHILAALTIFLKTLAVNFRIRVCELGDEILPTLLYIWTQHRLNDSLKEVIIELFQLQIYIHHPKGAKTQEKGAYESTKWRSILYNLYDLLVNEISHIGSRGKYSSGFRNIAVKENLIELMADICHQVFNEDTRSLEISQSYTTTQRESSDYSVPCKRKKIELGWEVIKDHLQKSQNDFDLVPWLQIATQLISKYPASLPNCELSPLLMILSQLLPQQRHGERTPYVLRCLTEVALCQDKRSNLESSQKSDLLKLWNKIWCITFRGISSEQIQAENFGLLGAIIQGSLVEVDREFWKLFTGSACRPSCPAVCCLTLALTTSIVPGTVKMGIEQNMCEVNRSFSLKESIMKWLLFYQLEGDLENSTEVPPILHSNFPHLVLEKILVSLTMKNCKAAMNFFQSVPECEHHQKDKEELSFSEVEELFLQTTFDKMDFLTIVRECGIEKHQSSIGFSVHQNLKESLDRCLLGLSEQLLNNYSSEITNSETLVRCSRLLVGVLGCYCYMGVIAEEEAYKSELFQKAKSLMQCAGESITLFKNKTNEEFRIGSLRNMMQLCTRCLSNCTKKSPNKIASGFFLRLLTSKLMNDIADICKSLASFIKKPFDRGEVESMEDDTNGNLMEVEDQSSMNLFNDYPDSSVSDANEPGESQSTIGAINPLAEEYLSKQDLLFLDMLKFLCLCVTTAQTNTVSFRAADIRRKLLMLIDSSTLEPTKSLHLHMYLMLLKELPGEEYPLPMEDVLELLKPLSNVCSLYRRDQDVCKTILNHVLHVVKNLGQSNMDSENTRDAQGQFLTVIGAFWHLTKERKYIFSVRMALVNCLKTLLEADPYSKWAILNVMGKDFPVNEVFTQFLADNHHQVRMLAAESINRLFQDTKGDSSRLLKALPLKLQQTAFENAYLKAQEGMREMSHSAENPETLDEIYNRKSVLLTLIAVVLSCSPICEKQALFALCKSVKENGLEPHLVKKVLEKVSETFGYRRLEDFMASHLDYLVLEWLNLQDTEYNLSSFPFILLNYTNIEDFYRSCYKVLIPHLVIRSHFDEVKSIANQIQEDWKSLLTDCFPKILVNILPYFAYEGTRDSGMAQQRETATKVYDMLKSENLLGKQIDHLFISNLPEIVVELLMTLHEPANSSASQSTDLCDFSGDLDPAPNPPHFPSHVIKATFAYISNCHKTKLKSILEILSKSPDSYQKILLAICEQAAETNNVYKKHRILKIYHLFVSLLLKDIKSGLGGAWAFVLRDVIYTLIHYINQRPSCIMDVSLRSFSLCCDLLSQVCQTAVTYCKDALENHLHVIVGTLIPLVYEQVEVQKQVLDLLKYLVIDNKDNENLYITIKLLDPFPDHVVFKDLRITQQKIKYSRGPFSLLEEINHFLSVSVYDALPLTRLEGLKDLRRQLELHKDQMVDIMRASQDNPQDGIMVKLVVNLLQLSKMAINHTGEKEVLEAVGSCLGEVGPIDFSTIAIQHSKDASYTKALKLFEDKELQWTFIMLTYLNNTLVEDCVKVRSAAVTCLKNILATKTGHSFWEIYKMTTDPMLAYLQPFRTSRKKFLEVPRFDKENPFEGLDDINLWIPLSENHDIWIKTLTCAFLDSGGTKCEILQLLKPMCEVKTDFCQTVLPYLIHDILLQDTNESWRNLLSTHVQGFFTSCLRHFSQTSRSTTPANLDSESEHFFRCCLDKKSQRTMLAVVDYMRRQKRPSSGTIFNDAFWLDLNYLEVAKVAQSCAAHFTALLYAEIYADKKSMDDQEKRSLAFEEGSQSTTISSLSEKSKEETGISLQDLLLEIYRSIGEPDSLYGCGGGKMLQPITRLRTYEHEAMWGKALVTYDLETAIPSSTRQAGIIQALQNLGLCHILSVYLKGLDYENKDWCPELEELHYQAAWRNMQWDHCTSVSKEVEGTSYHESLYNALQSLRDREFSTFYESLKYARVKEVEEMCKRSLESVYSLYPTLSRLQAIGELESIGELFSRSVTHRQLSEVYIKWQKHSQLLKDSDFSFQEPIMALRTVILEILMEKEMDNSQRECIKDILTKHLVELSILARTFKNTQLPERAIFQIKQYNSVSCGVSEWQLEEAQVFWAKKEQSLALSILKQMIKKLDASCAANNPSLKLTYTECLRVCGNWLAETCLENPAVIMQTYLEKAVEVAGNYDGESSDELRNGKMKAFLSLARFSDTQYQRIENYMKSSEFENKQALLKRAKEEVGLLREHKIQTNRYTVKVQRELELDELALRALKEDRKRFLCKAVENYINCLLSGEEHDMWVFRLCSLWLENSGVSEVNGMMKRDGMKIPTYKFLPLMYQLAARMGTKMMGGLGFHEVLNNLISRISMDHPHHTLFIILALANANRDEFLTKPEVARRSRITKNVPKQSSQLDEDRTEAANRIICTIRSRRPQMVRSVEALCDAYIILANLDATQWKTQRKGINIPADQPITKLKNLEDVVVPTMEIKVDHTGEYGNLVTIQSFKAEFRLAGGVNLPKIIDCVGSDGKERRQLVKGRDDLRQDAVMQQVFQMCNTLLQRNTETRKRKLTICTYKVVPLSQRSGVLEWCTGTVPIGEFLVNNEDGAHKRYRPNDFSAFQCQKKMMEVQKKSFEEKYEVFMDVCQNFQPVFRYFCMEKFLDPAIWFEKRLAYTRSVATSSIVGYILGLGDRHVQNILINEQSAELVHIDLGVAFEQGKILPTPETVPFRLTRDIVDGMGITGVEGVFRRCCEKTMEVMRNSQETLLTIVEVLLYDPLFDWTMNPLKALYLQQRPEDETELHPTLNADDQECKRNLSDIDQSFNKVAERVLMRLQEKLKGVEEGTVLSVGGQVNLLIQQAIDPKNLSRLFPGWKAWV
Experimental: FADU or MDA-MB-231 cells were harvested during log phase growth for in vivo implantation. The resuspended cells were washed three times in phosphate buffered saline (PBS) before preparing the working dilution in PBS. FADU cells were diluted to 1×10^7 cells/mL and MDA-MB-231 cells were diluted to 5×10^7 cells/mL. Each mouse was injected subcutaneously in the right flank with 100 μL of the cellular suspension. Tumor growth was monitored until the tumors reached a target volume of at least 100 mm^3, at which point mice were randomly stratified into four treatment groups.
Tumor studies were performed as follows. Mice bearing FADU or MDA-231 tumors were pre-dosed with vehicle alone or compound 569 alone at 3, 6, and 10 mg/kg. Tumors were then irradiated with 10 Gy 45 min after vehicle or compound 569 administration or left unirradiated (vehicle and compound 569 at 10 mg/kg). Tumors were harvested 1 h post radiation.
Tissue homogenates for pharmacodynamic analyses were collected and processed as follows. Tumor tissues from FADU or MDA-MB-231 tumors were flash frozen in liquid nitrogen and pulverized on dry ice using a tissue pulverizer. A portion of the tumor powder was transferred into a microtube, followed by addition of 500 μL of RIPA buffer [[…], pH 8.0, 150 mM NaCl, 0.1% SDS, 0.5% sodium deoxycholate, 1% IGEPAL® CA-630 (Sigma, I8896)]. To 10 ml of RIPA buffer, 2 tablets each of Protease inhibitor and Phosphatase inhibitor (Roche, #04693159001 & #04906837001), 200 μL of 0.1 M PMSF and 160 μL of Aprotinin, (Sigma, A6279) were added. The suspension was homogenized on ice with a pellet pestle motor (KONTES) and incubated on ice for 30 minutes. Cell lysates were centrifuged at 13,200 rpm for 15 min at 4° C. and supernatants were transferred to a new tube and analyzed for protein concentration with a BCA kit (Pierce, 23227), followed by immunoblotting.

[3] = molecular target: mTOR (Homo sapiens, UniProt P42345); assay: mTOR Biochemical Assay (LanthaScreen TR-FRET); conditions: ATP 3 μM
Experimental: mTOR Kinase reactions were performed in a 10 μL volume in low-volume 384-well plates. Typically, PerkinElmer model 6008260 plates were used. The composition of the 1× kinase reaction buffer was: 50 mM HEPES pH 7.5, 0.01% Tween 20, 1 mM EGTA, 10 mM MnCl2, and 2 mM DTT. The solution of mTOR enzyme (ThermoFisher, #PR8683B; the final mTOR concentration: 0.5 μg/mL) was added, and the compounds were serially diluted to the final maximal concentration of 100 nM (3 fold series dilution, a total of 10 doses). GFP-4E-BP1 (the final concentration: 0.4 μM) and the ATP solution (the final ATP concentration: 3 μM) were added to the 384-well plate. The plate was incubated at 25° C. for 1 hour, and 10 μL of the EDTA solution (20 mM) and Tb-labeled anti-p4E-BP1 antibody (4 nM) in TR-FRET dilution buffer were added to each well. The plate was sealed, incubated 30 min at 25° C., and read on a plate reader configured for LanthaScreen™ TRFRET.

CC(C)NCCOc1ncc(-c2cc3c4c(cnc3cc2F)N(C)C(=O)C42CCC2)cc1NS(C)(=O)=O [Compound 569, N-(5-(7′-Fluoro-3′-methyl-2′-oxo-2′,3′-dihydrospiro[cyclobutane-1,1′-pyrrolo[2,3-c]quinolin]-8′-yl)-2-(2-(isopropylamino)ethoxy)pyridin-3-yl)methanesulfonamide]
cellular toxicity in the absence of IR ([1]; 5-h exposure): without evidence of cellular toxicity
radiosensitization ([1]; 5-h exposure, 100-1000 nM, 0, 2, 4 Gy): significant degree of radiosensitization
Clonogenic survival ratio 0 Gy ([1]; 569 100 nM): 1.000
Clonogenic survival ratio 2 Gy ([1]; 569 100 nM): 0.0882
Fold 2 Gy ([1]; 569 100 nM): 7.5
Clonogenic survival ratio 4 Gy ([1]; 569 100 nM): 0.0146
Fold 4 Gy ([1]; 569 100 nM): 21.8
% survival @ 0 Gy w/out IR ([1]; 569 100 nM): 92%
Clonogenic survival ratio 0 Gy ([1]; 569 250 nM): 1.000
Clonogenic survival ratio 2 Gy ([1]; 569 250 nM): 0.0610
Fold 2 Gy ([1]; 569 250 nM): 10.8
Clonogenic survival ratio 4 Gy ([1]; 569 250 nM): 0.00588
Fold 4 Gy ([1]; 569 250 nM): 54.0
% survival @ 0 Gy w/out IR ([1]; 569 250 nM): 97%
Clonogenic survival ratio 0 Gy ([1]; 569 500 nM): 1.000
Clonogenic survival ratio 2 Gy ([1]; 569 500 nM): 0.0451
Fold 2 Gy ([1]; 569 500 nM): 14.7
Clonogenic survival ratio 4 Gy ([1]; 569 500 nM): 0.00347
Fold 4 Gy ([1]; 569 500 nM): 91.5
% survival @ 0 Gy w/out IR ([1]; 569 500 nM): 105%
Clonogenic survival ratio 0 Gy ([1]; 569 1000 nM): 1.000
Clonogenic survival ratio 2 Gy ([1]; 569 1000 nM): 0.0301
Fold 2 Gy ([1]; 569 1000 nM): 22.0
Clonogenic survival ratio 4 Gy ([1]; 569 1000 nM): 0.0016
Fold 4 Gy ([1]; 569 1000 nM): 198
% survival @ 0 Gy w/out IR ([1]; 569 1000 nM): 100%
pKAP1/KAP1 ([2]; 10 Gy, 3 mg/kg oral): 0.327
pKAP1/KAP1 ([2]; 10 Gy, 6 mg/kg oral): 0.0130
pKAP1/KAP1 ([2]; 10 Gy, 10 mg/kg oral): 0.00901
pKAP1/KAP1 ([2]; no radiation, 10 mg/kg oral): −0.00319
IC50 [3]: > 100 nM
